Key:
Format in all cases: in vivo
Pharbitis purpurea [1] = assay: Pre-emergence herbicidal action against PHBPU; conditions: 320 g/ha; visual score after 3 weeks vs untreated controls
Method in brief: (§1)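 Pre-emergence soil-surface spray of formulated compound (WP or EC; 600 to 800 l/ha; 0.2% wetting agent) over seeds sown in sandy loam. After 3 weeks under greenhouse conditions, damage is estimated visually in percent against untreated plants.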

Echinochloa crus-galli [2] = assay: Pre-emergence herbicidal action against ECHCG; conditions: 320 g/ha; visual score after 3 weeks vs untreated controls
Method in brief: as §1

Abutilon theophrasti [3] = assay: Post-emergence herbicidal action against ABUTH
Method in brief: (§2)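 Greenhouse plants in sandy loam were sprayed at the one-leaf stage, 2 to 3 weeks after sowing, with WP or EC formulations as aqueous suspension or emulsion (600 to 800 l/ha water, 0.2% wetting agent). Visual damage was scored about 3 weeks later versus untreated controls, 0% = like control, 100% = dead.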

Polygonum convolvulus [4] = assay: Post-emergence herbicidal action against POLCO; conditions: visual assessment about 3 weeks after treatment
Method in brief: as §2

Avena fatua [5] = assay: Post-emergence herbicidal action against AVEFA; conditions: visual assessment about 3 weeks after treatment
Method in brief: as §2

Alopecurus myosuroides [6] = assay: Post-emergence herbicidal action against ALOMY
Method in brief: as §2

Echinochloa crus-galli [7] = assay: Post-emergence herbicidal action against ECHCG; conditions: visual assessment about 3 weeks after treatment
Method in brief: as §2

Cyperus esculentus [8] = assay: Post-emergence herbicidal action against CYPES; conditions: 80 g/ha, visual assessment about 3 weeks after treatment
Description: (§3) Seeds of monocotyledonous and dicotyledonous weed and crop plants are laid out in sandy loam soil in wood-fiber pots, covered with soil and cultivated in a greenhouse under good growth conditions. 2 to 3 weeks after sowing, the test plants are treated at the one-leaf stage. The compounds of the invention, formulated in the form of wettable powders (WP) or as emulsion concentrates (EC), are then sprayed onto the green parts of the plants in the form of an aqueous suspension or emulsion at a water application rate equivalent to 600 to 800 l/ha, with addition of 0.2% wetting agent. After the test plants have been left to stand in the greenhouse under optimal growth conditions for about 3 weeks, the action of the preparations is assessed visually in comparison to untreated controls (herbicidal action in percent (%): 100% activity=the plants have died, 0% activity=like control plants). […] The tables below illustrate, in an illustrative manner, the post-emergence herbicidal action of the compounds of the invention, the herbicidal activity being stated in percent.

Viola tricolor [9] = assay: Pre-emergence herbicidal action against VIOTR
Method in brief: as §1

Stellaria media [10] = assay: Pre-emergence herbicidal action against STEME
Method in brief: as §1

Lolium rigidum [11] = assay: Post-emergence herbicidal action against LOLRI
Description: as §3

Polygonum convolvulus [12] = assay: Pre-emergence herbicidal action against POLCO
Method in brief: as §1

Viola tricolor [13] = assay: Post-emergence herbicidal action against VIOTR; conditions: 80 g/ha
Method in brief: as §2

Amaranthus retroflexus [14] = assay: Post-emergence herbicidal action against AMARE; conditions: visual assessment about 3 weeks after treatment
Method in brief: as §2

Matricaria inodora [15] = assay: Pre-emergence herbicidal action against MATIN; conditions: visual score after 3 weeks vs untreated controls
Method in brief: as §1

Setaria viridis [16] = assay: Pre-emergence herbicidal action against SETVI
Method in brief: as §1

Veronica persica [17] = assay: Pre-emergence herbicidal action against VERPE; conditions: 320 g/ha
Method in brief: as §1

Pharbitis purpurea [18] = assay: Post-emergence herbicidal action against PHBPU; conditions: visual assessment about 3 weeks after treatment
Method in brief: as §2

Lolium rigidum [19] = assay: Pre-emergence herbicidal action against LOLRI
Method in brief: as §1

Hordeum murinum = assay: Pre-emergence herbicidal action against HORMU; conditions: visual score after 3 weeks vs untreated controls
Method in brief: as §1

Matricaria inodora [20] = assay: Post-emergence herbicidal action against MATIN; conditions: 80 g/ha, visual assessment about 3 weeks after treatment
Method in brief: as §2

Cyperus esculentus [21] = assay: Pre-emergence herbicidal action against CYPES; conditions: visual score after 3 weeks vs untreated controls
Method in brief: as §1

Abutilon theophrasti [22] = assay: Pre-emergence herbicidal action against ABUTH; conditions: visual score after 3 weeks vs untreated controls
Method in brief: as §1

Veronica persica [23] = assay: Post-emergence herbicidal action against VERPE; conditions: visual assessment about 3 weeks after treatment
Method in brief: as §2

Avena fatua [24] = assay: Pre-emergence herbicidal action against AVEFA; conditions: visual score after 3 weeks vs untreated controls
Method in brief: as §1

Setaria viridis [25] = assay: Post-emergence herbicidal action against SETVI; conditions: visual assessment about 3 weeks after treatment
Method in brief: as §2

Alopecurus myosuroides [26] = assay: Pre-emergence herbicidal action against ALOMY; conditions: visual score after 3 weeks vs untreated controls
Method in brief: as §1

Amaranthus retroflexus [27] = assay: Pre-emergence herbicidal action against AMARE; conditions: visual score after 3 weeks vs untreated controls
Method in brief: as §1

Stellaria media [28] = assay: Post-emergence herbicidal action against STEME; conditions: visual assessment about 3 weeks after treatment
Method in brief: as §2

Compound: Cn1nnnc1NC(=O)c1ccc(C(F)(F)F)c(C(=O)N2CCCC2)c1Cl [Example 1-152]
- Pre-emergence action against PHBPU (Pharbitis purpurea [1]): 80%
- Pre-emergence action against ECHCG (Echinochloa crus-galli [2]): 100%
- Post-emergence action against ABUTH (Abutilon theophrasti [3]; 5 g/ha): 100%
- Post-emergence action against ABUTH (Abutilon theophrasti [3]; 20 g/ha): 100%
- Post-emergence action against ABUTH (Abutilon theophrasti [3]; 80 g/ha): 100%
- Post-emergence action against POLCO in % (Polygonum convolvulus [4]; 5 g/ha): 80%
- Post-emergence action against POLCO in % (Polygonum convolvulus [4]; 80 g/ha): 80%
- Post-emergence action against AVEFA in % (Avena fatua [5]; 20 g/ha): 90%
- Post-emergence action against AVEFA in % (Avena fatua [5]; 80 g/ha): 100%
- Post-emergence action against ALOMY (Alopecurus myosuroides [6]; 20 g/ha): 80%
- Post-emergence action against ALOMY (Alopecurus myosuroides [6]; 80 g/ha): 90%
- Post-emergence action against ECHCG in % (Echinochloa crus-galli [7]; 5 g/ha): 80%
- Post-emergence action against ECHCG in % (Echinochloa crus-galli [7]; 20 g/ha): 90%
- Post-emergence action against ECHCG in % (Echinochloa crus-galli [7]; 80 g/ha): 100%
- Post-emergence action against CYPES in % (Cyperus esculentus [8]): 80%
- Pre-emergence action against VIOTR (Viola tricolor [9]; 80 g/ha): 100%
- Pre-emergence action against VIOTR (Viola tricolor [9]; 320 g/ha): 100%
- Pre-emergence action against STEME (Stellaria media [10]; 20 g/ha): 90%
- Pre-emergence action against STEME (Stellaria media [10]; 80 g/ha): 100%
- Pre-emergence action against STEME (Stellaria media [10]; 320 g/ha): 100%
- Post-emergence action against LOLRI in % (Lolium rigidum [11]; 20 g/ha): 90%
- Post-emergence action against LOLRI in % (Lolium rigidum [11]; 80 g/ha): 100%
- Pre-emergence action against POLCO (Polygonum convolvulus [12]; 80 g/ha): 80%
- Pre-emergence action against POLCO (Polygonum convolvulus [12]; 320 g/ha): 100%
- Post-emergence action against VIOTR in % (Viola tricolor [13]): 90%
- Post-emergence action against AMARE in % (Amaranthus retroflexus [14]; 5 g/ha): 100%
- Post-emergence action against AMARE in % (Amaranthus retroflexus [14]; 20 g/ha): 100%
- Post-emergence action against AMARE in % (Amaranthus retroflexus [14]; 80 g/ha): 100%
- Pre-emergence action against MATIN (Matricaria inodora [15]; 20 g/ha): 100%
- Pre-emergence action against MATIN (Matricaria inodora [15]; 80 g/ha): 100%
- Pre-emergence action against MATIN (Matricaria inodora [15]; 320 g/ha): 100%
- Pre-emergence action against SETVI (Setaria viridis [16]; 20 g/ha): 100%
- Pre-emergence action against SETVI (Setaria viridis [16]; 80 g/ha): 100%
- Pre-emergence action against SETVI (Setaria viridis [16]; 320 g/ha): 100%
- Pre-emergence action against VERPE (Veronica persica [17]): 90%
- Post-emergence action against PHBPU in % (Pharbitis purpurea [18]; 5 g/ha): 80%
- Post-emergence action against PHBPU in % (Pharbitis purpurea [18]; 20 g/ha): 90%
- Post-emergence action against PHBPU in % (Pharbitis purpurea [18]; 80 g/ha): 90%
- Pre-emergence action against LOLRI (Lolium rigidum [19]; 80 g/ha): 80%
- Pre-emergence action against LOLRI (Lolium rigidum [19]; 320 g/ha): 100%
- Pre-emergence action against HORMU (Hordeum murinum; 80 g/ha): 90%
- Pre-emergence action against HORMU (Hordeum murinum; 320 g/ha): 100%
- Post-emergence action against MATIN in % (Matricaria inodora [20]): 90%
- Pre-emergence action against CYPES (Cyperus esculentus [21]; 80 g/ha): 90%
- Pre-emergence action against CYPES (Cyperus esculentus [21]; 320 g/ha): 100%
- Pre-emergence action against ABUTH (Abutilon theophrasti [22]; 20 g/ha): 100%
- Pre-emergence action against ABUTH (Abutilon theophrasti [22]; 80 g/ha): 100%
- Pre-emergence action against ABUTH (Abutilon theophrasti [22]; Dosage column 320 g/ha (heading prints 3200 g/ha)): 100%
- Post-emergence action against VERPE in % (Veronica persica [23]; 20 g/ha): 90%
- Post-emergence action against VERPE in % (Veronica persica [23]; 80 g/ha): 90%
- Pre-emergence action against AVEFA (Avena fatua [24]; 80 g/ha): 100%
- Pre-emergence action against AVEFA (Avena fatua [24]; 320 g/ha): 100%
- Post-emergence action against SETVI in % (Setaria viridis [25]; 5 g/ha): 100%
- Post-emergence action against SETVI in % (Setaria viridis [25]; 20 g/ha): 100%
- Post-emergence action against SETVI in % (Setaria viridis [25]; 80 g/ha): 100%
- Pre-emergence action against ALOMY (Alopecurus myosuroides [26]; 20 g/ha): 80%
- Pre-emergence action against ALOMY (Alopecurus myosuroides [26]; 80 g/ha): 90%
- Pre-emergence action against ALOMY (Alopecurus myosuroides [26]; 320 g/ha): 100%
- Pre-emergence action against AMARE (Amaranthus retroflexus [27]; 20 g/ha): 100%
- Pre-emergence action against AMARE (Amaranthus retroflexus [27]; 80 g/ha): 100%
- Pre-emergence action against AMARE (Amaranthus retroflexus [27]; 320 g/ha): 100%
- Post-emergence action against STEME in % (Stellaria media [28]; 5 g/ha): 90%
- Post-emergence action against STEME in % (Stellaria media [28]; 20 g/ha): 90%
- Post-emergence action against STEME in % (Stellaria media [28]; 80 g/ha): 100%
